Experimental data taken from patent US7109185B2, “Pharmaceutical formulations comprising indolinone derivatives” (Sugen, Inc., priority 2001, dated 2006).

Experiments:
[1] = Plasma Stability Test: conversion of prodrug to drug after IV administration to dogs, HPLC analysis of blood plasma; format: in vivo; conditions: IV at 2 mg/mL, blood plasma followed for 4 hours
Protocol: The prodrug (3Z)-3-[(3,5-dimethyl-1H-pyrrol-2-yl)-methylidene]-1-(1-pyrrolidinylmethyl)-1,3-dihydro-2H-indol-2-one was administered IV at 2 mg/mL to dogs. Levels of both prodrug and drug (3(Z)-3-[(3,5-dimethyl-1H-pyrrol-2-yl)-methylidene]-1,3-dihydro-2H-indol-2-one) were followed by HPLC analysis of blood plasma for 4 hours following dosing.

[2] = Hydrolysis (pH stability profile) at pH 7.2 and 7.6; format: physicochemical; conditions: for half-life: buffer, read-out: Half life, t1/2 (hydrolysis)
Text: (3Z)-3-[(3,5-Dimethyl-1H-pyrrol-2-yl)-methylidene]-1-(1-pyrrolidinylmethyl)-1,3-dihydro-2H-indol-2-one is a Mannich base and is designed to hydrolyse to 3-(3,5-dimethyl-1H-pyrrol-2-ylmethylene)-1,3-dihydro-indol-2-one at physiological pH. The stability of (3Z)-3-[(3,5-dimethyl-1H-pyrrol-2-yl)-methylidene]-1-(1-pyrrolidinylmethyl)-1,3-dihydro-2H-indol-2-one is higher at a lower pH. […] The pH stability profile of (3Z)-3-[(3,5-dimethyl-1H-pyrrol-2-yl)-methylidene]-1-(1-pyrrolidinylmethyl)-1,3-dihydro-2H-indol-2-one at pH 7.2 and pH 7.6 is tabulated in table 1.

[3] = system: vascular endothelial growth factor receptor (Flk-1/KDR); conditions: Fong et al. (1999) Cancer Res. 59:99–106; cited from earlier work

Cc1cc(C)c(/C=C2\C(=O)N(COC(=O)CCC(=O)O)c3ccccc32)[nH]1 [Example 3, 4-({(3Z)-3-[(3,5-dimethyl-1H-pyrrol-2-yl)-methylidene]-2-oxo-2,3-dihydro-1H-indol-1-yl}methoxy)-4-oxobutanoic acid]
melting point: 160 to 162 °C

Cc1cc(C)c(/C=C2\C(=O)N(CN3CCCC3)c3ccccc32)[nH]1 [Example 14, (3Z)-3-[(3,5-dimethyl-1H-pyrrol-2-yl)-methylidene]-1-(1-pyrrolidinylmethyl)-1,3-dihydro-2H-indol-2-one]
prodrug converted into drug (area under the curve of drug concentration vs time) [1]: 80% | half-life ([1]; dog): 7.3 min | half-life ([2]; pH 7.2): 6.2 min | half-life ([2]; pH 7.6): 6 min | hydrolysis to 3-(3,5-dimethyl-1H-pyrrol-2-ylmethylene)-1,3-dihydro-indol-2-one ([2]; physiological pH): rapidly hydrolyses | melting point: 129 to 132 °C

Cc1cc(C)c(/C=C2\C(=O)N(CO)c3ccccc32)[nH]1 [Example 1, (3Z)-3-[(3,5-dimethyl-1H-pyrrol-2-yl)-methylidene]-1-(hydroxymethyl)-1,3-dihydro-2H-indol-2-one]
melting point: 200 to 202 °C

Cc1cc(C)c(C=C2C(=O)Nc3ccccc32)[nH]1 [3-(3,5-dimethyl-1H-pyrrol-2-ylmethylene)-1,3-dihydro-indol-2-one]
inhibition of the vascular endothelial growth factor receptor (Flk-1/KDR) [3]: highly active selective inhibitor

CC(=O)OC(C)N1C(=O)/C(=C\c2[nH]c(C)cc2C)c2ccccc21 (stereo not shown) [Example 4, 1-{(3Z)-3-[(3,5-dimethyl-1H-pyrrol-2-yl)-methylidene]-2-oxo-2,3-dihydro-1H-indol-1-yl}ethyl acetate]
melting point: 107 to 110 °C
